Reference: the NIST ThermoML archive (doi:10.1021/je500380x)

Experiment: mn = molality of the nth substance listed, in mol/kg
Settings: 100 kPa, Liquid; for mass density: Vibrating tube method; for electrical conductivity: Alternating current cell with electrodes; for viscosity: Falling or rolling sphere viscometry

CCC(=O)OCCN1CCNCC1 [2-(piperazin-1-yl)ethyl propionate] + CCO
Settings	electrical conductivity, 303.15 K [S/m]	electrical conductivity, 308.15 K [S/m]	mass density, 298.15 K [kg/m3]	mass density, 303.15 K [kg/m3]	viscosity, 303.15 K [mPa·s]	viscosity, 308.15 K [mPa·s]
m1 = 0.05	0.0191	0.0194	–	783.69	1.021	0.934
m1 = 0.1	0.0305	0.0313	–	786.41	1.069	0.976
m1 = 0.1985	0.0483	0.0499	–	791.76	1.2	1.028
m1 = 0.3005	0.0627	0.0652	–	797.4	1.209	1.1
m1 = 0.4001	0.0745	0.0776	–	802.85	1.289	1.171
m1 = 0.5007	0.0858	0.0899	812.78	808.5	1.392	1.261
m1 = 0.5998	0.0954	0.1004	818.26	813.99	1.495	1.352
m1 = 0.7002	0.1036	0.109	823.96	819.7	1.613	1.456
m1 = 0.8	0.1125	0.119	829.67	825.43	1.766	1.59
m1 = 0.8957	0.119	0.126	835.39	831.17	1.89	1.698
m1 = 1	0.127	0.135	841.3	837.09	2.054	–
m1 = 1.198	0.139	0.148	852.92	848.73	2.427	–
m1 = 1.401	0.149	0.1609	865.42	861.28	2.935	–
m1 = 1.602	0.155	0.169	877.35	873.24	3.606	–
m1 = 1.8	0.16	0.1747	889.66	885.6	4.489	–
m1 = 2.001	0.1614	0.178	902.95	898.93	5.886	–
m1 = 2.198	0.159	0.177	914.88	910.89	7.117	–
m1 = 2.397	0.155	0.173	928.01	924.07	9.203	–
m1 = 2.597	0.147	0.165	941.19	937.29	13.25	–
m1 = 2.796	0.14	0.158	954.36	950.5	17.19	–
m1 = 3.006	0.1307	0.148	968.58	964.74	24.65	–
